The nature of assay [1]: Inhibitory ratio for bovine acetylcholinesterase and equine butyrylcholinesterase.
Assay [2] deals with T1, Acetylcholinesterase (Bos taurus, UniProt P23795).
T1 sequence (P23795 whole entry): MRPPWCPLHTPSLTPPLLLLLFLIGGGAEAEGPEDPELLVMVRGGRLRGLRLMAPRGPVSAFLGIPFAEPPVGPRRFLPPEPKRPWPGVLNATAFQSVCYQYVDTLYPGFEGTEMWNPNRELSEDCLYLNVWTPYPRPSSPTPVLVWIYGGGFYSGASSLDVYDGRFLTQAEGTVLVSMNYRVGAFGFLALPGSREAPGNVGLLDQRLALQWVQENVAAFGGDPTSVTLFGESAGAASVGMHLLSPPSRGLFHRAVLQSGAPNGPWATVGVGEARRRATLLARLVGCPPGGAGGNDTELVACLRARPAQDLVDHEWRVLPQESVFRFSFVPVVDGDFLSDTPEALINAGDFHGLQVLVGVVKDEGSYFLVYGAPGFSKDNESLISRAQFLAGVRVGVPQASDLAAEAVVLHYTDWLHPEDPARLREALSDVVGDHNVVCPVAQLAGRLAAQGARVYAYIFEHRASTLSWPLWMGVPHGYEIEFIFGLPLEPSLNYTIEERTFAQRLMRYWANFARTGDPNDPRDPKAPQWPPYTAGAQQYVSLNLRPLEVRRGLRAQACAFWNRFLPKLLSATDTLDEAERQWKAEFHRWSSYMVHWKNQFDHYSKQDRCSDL
Description: Dissociation constant for inhibition of fetal bovine serum Acetylcholinesterase

The target in another assay is Butyrylcholinesterase (Equus caballus, UniProt Q9N1N9).
For a further assay, the target named is Cholinesterase (Homo sapiens, UniProt P06276). Nature of the assay: Inhibitory concentration against human butyrylcholinesterase.
Assay [3] concerns the target Acetylcholinesterase (Homo sapiens, UniProt P22303). Nature of the assay: Inhibitory concentration against human Acetylcholinesterase.

The structures appear in SMILES notation.

Chain of Butyrylcholinesterase (Q9N1N9 whole entry): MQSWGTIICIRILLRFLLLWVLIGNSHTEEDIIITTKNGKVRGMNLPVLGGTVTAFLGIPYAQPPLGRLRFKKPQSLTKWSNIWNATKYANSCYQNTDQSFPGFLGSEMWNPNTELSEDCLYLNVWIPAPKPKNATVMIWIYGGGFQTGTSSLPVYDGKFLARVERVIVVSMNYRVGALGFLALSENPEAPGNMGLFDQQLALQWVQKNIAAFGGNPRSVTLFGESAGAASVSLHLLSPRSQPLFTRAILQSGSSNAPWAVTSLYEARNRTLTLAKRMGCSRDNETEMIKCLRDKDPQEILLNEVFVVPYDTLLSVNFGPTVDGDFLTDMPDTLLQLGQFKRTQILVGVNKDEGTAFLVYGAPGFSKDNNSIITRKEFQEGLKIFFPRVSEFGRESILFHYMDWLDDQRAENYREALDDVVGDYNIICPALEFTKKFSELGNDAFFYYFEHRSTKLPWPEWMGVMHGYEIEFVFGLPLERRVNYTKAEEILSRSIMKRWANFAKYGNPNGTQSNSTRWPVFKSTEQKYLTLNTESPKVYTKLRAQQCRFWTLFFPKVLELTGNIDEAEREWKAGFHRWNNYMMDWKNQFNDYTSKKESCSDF
Chain of Cholinesterase (P06276 whole entry): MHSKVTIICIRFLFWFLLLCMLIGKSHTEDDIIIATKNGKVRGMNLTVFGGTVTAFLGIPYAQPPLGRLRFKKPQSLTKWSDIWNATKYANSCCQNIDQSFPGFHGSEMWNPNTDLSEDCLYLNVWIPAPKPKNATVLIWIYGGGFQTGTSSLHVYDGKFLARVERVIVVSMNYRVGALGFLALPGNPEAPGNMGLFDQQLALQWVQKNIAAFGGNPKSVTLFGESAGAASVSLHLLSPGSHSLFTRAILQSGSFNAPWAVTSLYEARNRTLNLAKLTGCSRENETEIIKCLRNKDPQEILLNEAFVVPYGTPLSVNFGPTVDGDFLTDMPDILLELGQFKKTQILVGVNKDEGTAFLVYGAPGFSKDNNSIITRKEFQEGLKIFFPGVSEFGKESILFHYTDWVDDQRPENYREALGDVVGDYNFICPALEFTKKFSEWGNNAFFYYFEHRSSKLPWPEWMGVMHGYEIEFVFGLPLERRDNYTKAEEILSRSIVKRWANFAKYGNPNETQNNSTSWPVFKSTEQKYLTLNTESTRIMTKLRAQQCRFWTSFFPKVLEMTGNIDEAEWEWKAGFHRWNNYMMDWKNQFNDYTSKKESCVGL
Chain of Acetylcholinesterase (Homo sapiens, UniProt P22303) (P22303 whole entry): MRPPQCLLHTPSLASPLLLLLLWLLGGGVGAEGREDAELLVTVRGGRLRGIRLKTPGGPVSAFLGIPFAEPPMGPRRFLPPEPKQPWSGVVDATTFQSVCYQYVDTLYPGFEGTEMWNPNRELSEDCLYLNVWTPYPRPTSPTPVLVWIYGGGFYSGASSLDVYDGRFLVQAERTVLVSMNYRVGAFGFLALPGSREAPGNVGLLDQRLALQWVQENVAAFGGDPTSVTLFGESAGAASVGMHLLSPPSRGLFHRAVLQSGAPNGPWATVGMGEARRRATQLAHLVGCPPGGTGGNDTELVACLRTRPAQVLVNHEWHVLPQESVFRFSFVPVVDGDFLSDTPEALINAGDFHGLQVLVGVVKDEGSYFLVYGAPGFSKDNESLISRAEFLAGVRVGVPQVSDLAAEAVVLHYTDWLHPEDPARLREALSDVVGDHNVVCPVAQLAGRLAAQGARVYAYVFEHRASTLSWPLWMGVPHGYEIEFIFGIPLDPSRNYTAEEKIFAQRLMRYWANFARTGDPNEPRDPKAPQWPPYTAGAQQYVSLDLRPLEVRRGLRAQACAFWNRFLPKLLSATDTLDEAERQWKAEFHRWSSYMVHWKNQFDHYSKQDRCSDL
Description for Butyrylcholinesterase: Dissociation constant for inhibition of equine Butyrylcholinesterase (BuChE)

One may read the Ki as a dissociation constant, usually derived from enzyme kinetics or from competition with a known ligand. Take `CN(CCCNc1c2c(nc3ccccc13)CCCC2)CCCSc1c2c(nc3ccccc13)CCCC2`: the Ratio in assay [1] turned out to be 2.2. For the same compound, the results for the Ki at Acetylcholinesterase [2] and at Butyrylcholinesterase were 9.1 nM and 4.2 nM, respectively.
Taken in the same sequence, the figures for `CC(=O)N(CCCNc1c2c(nc3ccccc13)CCCC2)CCCSc1c2c(nc3ccccc13)CCCC2` were 217, 50 nM and 0.23 nM.
As to `c1ccc2c(NCCCCCCCCCSc3c4c(nc5ccccc35)CCCC4)c3c(nc2c1)CCCC3`, the Ratio in assay [1] is 86. Further, the Ki on Acetylcholinesterase [2] turned out to be 195 nM; on Butyrylcholinesterase, 2.3 nM.
By IC50 is commonly meant the point on the concentration scale where inhibition reaches its midpoint. In the case of `c1ccc2c(NCCCCCCCCSc3c4c(nc5ccccc35)CCCC4)c3c(nc2c1)CCCC3`, the IC50 against Cholinesterase was determined as 0.77 nM. For the same compound, in assay [1], the Ratio was determined as 625.
In the case of `CC(=O)N(CCCCSc1c2c(nc3ccccc13)CCCC2)CCCNc1c2c(nc3ccccc13)CCCC2`, the Ratio in assay [1] came to 427. Further, the results for the Ki on Acetylcholinesterase [2] and on Butyrylcholinesterase were 47 nM and 0.11 nM, respectively.
As to `CN(CCCNc1c2c(nc3ccccc13)CCCC2)CCCNc1c2c(nc3ccccc13)CCCC2`, the IC50 against Acetylcholinesterase [3] stood at 0.3 nM; on Cholinesterase, 10.4 nM. In assay [1], the Ratio amounted to 0.01.
In the case of `c1ccc2c(NCCCCCCCSc3c4c(nc5ccccc35)CCCC4)c3c(nc2c1)CCCC3`, the Ratio in assay [1] is 9.7.
`C=CCN(CCCNc1c2c(nc3ccccc13)CCCC2)CCCNc1c2ccccc2nc2ccccc12`: the Ratio in assay [1] turned out to be 2.1. Besides, the values for the Ki at Acetylcholinesterase [2] and at Butyrylcholinesterase were 1.6 nM and 0.76 nM, respectively.
Taken in the same sequence, the figures for `CN(CCCCSc1c2c(nc3ccccc13)CCCC2)CCCNc1c2c(nc3ccccc13)CCCC2` were 191, 130 nM and 0.68 nM.
For `CC(=O)N(CCCNc1c2c(nc3ccccc13)CCCC2)CCCNc1c2ccccc2nc2ccccc12`, at Cholinesterase, the IC50 is 3.9 nM. Also, the Ratio in assay [1] stood at 750. Further, the Ki turned out to be 1500 nM on Acetylcholinesterase [2] and 2 nM at Butyrylcholinesterase.
In the case of `c1ccc2c(NCCCCCNc3c4c(nc5ccccc35)CCCC4)c3c(nc2c1)CCCC3`, the Ratio in assay [1] is 2.1. Also, the Ki at Acetylcholinesterase [2] was 210 nM; at Butyrylcholinesterase, 100 nM.
As to `CCN(CC)C(C)CN1c2ccccc2Sc2ccccc21` (stereo not given) [ETHOPROPAZINE], the affinity on Butyrylcholinesterase corresponds to a Ki of 20 nM. This lies in the double-digit nanomolar range.
Take `OCCN(CCCNc1c2c(nc3ccccc13)CCCC2)CCCNc1c2ccccc2nc2ccccc12`: in assay [1], the Ratio came out at 0.2. Besides, the Ki on Acetylcholinesterase [2] was 0.65 nM; on Butyrylcholinesterase, 3.3 nM.

The record behind these values is ChEMBL document CHEMBL1142727 (J Med Chem, 2005).
